# Results taken from US20080312184A1 (priority 2005, published 2008).
# Experiments:
# [1] = test system: powdery mildew pathogen (EBI resistant strain); assay: Control Test on Powdery Mildew of Cucumbers (EBI Resistant Strain); assay type: in vivo, cucumbers (cultivar: sagami-hanjiro); settings: single active ingredient
# [2] = test system: gray mold fungus (MBC resistant, dicarboximide-based chemical sensitive: RS strain); assay: Control Test on Gray Mold of Tomato at its Flowering Stage (RS Strain); assay type: in vivo, tomatoes (cultivar: House-Momotaro); settings: Table 4, single active ingredient, sprayed twice, examined after 7 days
# [3] = Table 1, treated concentration 10 ppm, examined after 14 days
compound,measurement,setting,value
"CC(C)CC(C)c1sccc1NC(=O)c1cn(C)nc1C(F)(F)F (racemic) [P (penthiopyrad), (RS)—N-[2-(1,3-dimethylbutyl)thiophen-3-yl]-1-methyl-3-tri fluoromethyl-1H-pyrazole-4-carboxamide]",Control Value,[1]; [3],68
same,Control Value,"[1]; Table 7 (Example B), treated concentration 10 ppm",68
same,Control Value,[2]; treated concentration 10 ppm,56
"Clc1nc(Cl)nc(Nc2ccccc2Cl)n1 [Anilazine, anilazine]",Control Value,[2]; treated concentration 50 ppm,40
"O=C(Nc1ccccc1-c1ccc(Cl)cc1)c1cccnc1Cl [Boscalid, boscalid]",Control Value,[2]; treated concentration 20 ppm,48
"CCCCc1c(C)nc(NCC)nc1OS(=O)(=O)N(C)C [Bupirimate, bupirimate]",Control Value,"[1]; Table 1, treated concentration 20 ppm, examined after 14 days",45
"CCOC(=O)C1(C)OC(=O)N(c2cc(Cl)cc(Cl)c2)C1=O (stereo not drawn) [Chlozolinate, chlozolinate]",Control Value,[2]; treated concentration 40 ppm,42
"O=C(Cc1ccccc1)N/C(=N\OCC1CC1)c1c(C(F)(F)F)ccc(F)c1F [Cyflufenamid, cyflufenamid]",Control Value,"[1]; Table 1, treated concentration 5 ppm, examined after 14 days",66
"CNC(=O)/C(=N/OC)c1ccccc1COc1cc(C)ccc1C [Dimoxystrobin, dimoxystrobin]",Control Value,"[1]; Table 7 (Example B), treated concentration 15 ppm",60
"CC1(C(=O)Nc2ccc(O)c(Cl)c2Cl)CCCCC1 [Fenhexamid, fenhexamid]",Control Value,[2]; treated concentration 20 ppm,55
"FC(F)C(F)(F)OCC(Cn1cncn1)c1ccc(Cl)cc1Cl (stereo not drawn) [Tetraconazole, tetraconazole]",Control Value,[1]; [3],34
"CC(C)(C)C(=O)C(Oc1ccc(Cl)cc1)n1cncn1 (stereo not drawn) [Triadimefon, triadimefon]",Control Value,[1]; [3],29
